Target: T1, Dopamine beta hydroxylase (Homo sapiens, UniProt P09172)
T1 construct: 125 μl of plasma; tissue Instituto Português do Sangue Transplantação; host or cells: human plasma from healthy donors
T1 sequence (P09172 40-617 limits assumed): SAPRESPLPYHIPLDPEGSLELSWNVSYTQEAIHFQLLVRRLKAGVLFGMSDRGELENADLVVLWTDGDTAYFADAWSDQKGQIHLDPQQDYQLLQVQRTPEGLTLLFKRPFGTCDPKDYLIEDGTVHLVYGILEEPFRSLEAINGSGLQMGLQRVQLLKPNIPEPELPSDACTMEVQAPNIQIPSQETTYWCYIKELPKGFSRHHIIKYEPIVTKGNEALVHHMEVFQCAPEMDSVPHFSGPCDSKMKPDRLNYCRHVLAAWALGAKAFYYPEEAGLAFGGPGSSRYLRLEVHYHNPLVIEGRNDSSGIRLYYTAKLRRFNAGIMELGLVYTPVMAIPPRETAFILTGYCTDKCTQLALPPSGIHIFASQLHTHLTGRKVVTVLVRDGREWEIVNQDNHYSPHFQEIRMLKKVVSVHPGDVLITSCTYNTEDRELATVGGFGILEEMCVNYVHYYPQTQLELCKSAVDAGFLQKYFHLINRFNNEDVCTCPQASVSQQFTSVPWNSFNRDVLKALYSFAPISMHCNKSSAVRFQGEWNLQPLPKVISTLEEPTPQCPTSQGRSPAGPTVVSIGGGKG
Test: Dopamine beta hydroxylase activity in human plasma
Assay type: biochemical
Conditions: for Plasma (0.1 μM), activity in % of control: inhibitor 0.1 μM; for Plasma (1 μM), activity in % of control: inhibitor 1 μM; for Plasma (0.01 μM), activity in % of control: inhibitor 0.01 μM
Procedure, shortened: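 Healthy-donor human plasma pre-incubated 10 min at 37° C with compound at final 10, 100 or 1000 nM in pH 5.0 acetate buffer with ascorbate, fumarate, pargyline, N-ethylmaleimide, catalase and copper sulfate. Tyramine substrate then added for 45 min; octopamine formed was isolated by SCX cartridge, periodate-converted and read at 330 nm; activity given as % control.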

SMILES | Plasma (0.1 μM), activity in % of control | Plasma (1 μM), activity in % of control | Plasma (0.01 μM), activity in % of control
O=C(Cc1[nH]c(=S)n2c1[C@@H]1C[C@]1(c1cc(Br)ccc1F)C2)N1CCN(c2ccccn2)CC1 [Example 147, 2-((5aS,6aR)-5a-(5-bromo-2-fluorophenyl)-3-thioxo-2,3,5,5a,6,6a-hexahydrocyclopropa[3,4]pyrrolo[1,2-c]imidazol-1-yl)-1-(4-(pyridin-2-yl)piperazin-1-yl)ethan-1-one] | 29.0 % of control | 2.4 % of control | –
O=C(Cc1[nH]c(=S)n2c1[C@@H]1C[C@]1(c1cc(Br)ccc1F)C2)NC1CCOC1 (stereo partly drawn) [Example 148, 2-((5aS,6aR)-5a-(5-bromo-2-fluorophenyl)-3-thioxo-2,3,5,5a,6,6a-hexahydrocyclopropa[3,4]pyrrolo[1,2-c]imidazol-1-yl)-N-(tetrahydrofuran-3-yl)acetamide] | 17.1 % of control | 0.9 % of control | –
O=C(Cc1[nH]c(=S)n2c1[C@@H]1C[C@]1(c1c(F)ccc(Cl)c1F)C2)N1CCC(F)(F)CC1 [Example 149, 2-((5aS,6aR)-5a-(3-chloro-2,6-difluorophenyl)-3-thioxo-2,3,5,5a,6,6a-hexahydrocyclopropa[3,4]pyrrolo[1,2-c]imidazol-1-yl)-1-(4,4-difluoropiperidin-1-yl)ethan-1-one] | 3.0 % of control | – | 52.5 % of control
O=C(Cc1[nH]c(=S)n2c1[C@@H]1C[C@]1(c1c(F)ccc(Cl)c1F)C2)NCC(F)(F)F [Example 150, 2-((5aS,6aR)-5a-(3-chloro-2,6-difluorophenyl)-3-thioxo-2,3,5,5a,6,6a-hexahydrocyclopropa[3,4]pyrrolo[1,2-c]imidazol-1-yl)-N-(2,2,2-trifluoroethyl)acetamide] | 17.1 % of control | – | 64.8 % of control

Results, then the compound that gave them:

Plasma (0.1 μM), activity in % of control | Plasma (1 μM), activity in % of control | Plasma (0.01 μM), activity in % of control | SMILES
20.2 % of control | – | 73.7 % of control | O=C(Cc1[nH]c(=S)n2c1[C@@H]1C[C@]1(c1c(F)ccc(Cl)c1F)C2)NCc1cccnc1 [Example 151, 2-((5aS,6aR)-5a-(3-chloro-2,6-difluorophenyl)-3-thioxo-2,3,5,5a,6,6a-hexahydrocyclopropa[3,4]pyrrolo[1,2-c]imidazol-1-yl)-N-(pyridin-3-ylmethyl)acetamide]
17.8 % of control | – | 72.1 % of control | O=C(Cc1[nH]c(=S)n2c1[C@@H]1C[C@]1(c1cc(Br)ccc1F)C2)NCC(F)(F)F [Example 152, 2-((5aS,6aR)-5a-(5-bromo-2-fluorophenyl)-3-thioxo-2,3,5,5a,6,6a-hexahydrocyclopropa[3,4]pyrrolo[1,2-c]imidazol-1-yl)-N-(2,2,2-trifluoroethyl)acetamide]
28.4 % of control | – | 85.5 % of control | O=C(Cc1[nH]c(=S)n2c1[C@@H]1C[C@]1(c1cc(Br)ccc1F)C2)NC1CCC1 [Example 153, 2-((5aS,6aR)-5a-(5-bromo-2-fluorophenyl)-3-thioxo-2,3,5,5a,6,6a-hexahydrocyclopropa[3,4]pyrrolo[1,2-c]imidazol-1-yl)-N-cyclobutylacetamide]
38.6 % of control | – | 89.5 % of control | O=C(Cc1[nH]c(=S)n2c1[C@@H]1C[C@]1(c1cc(Br)ccc1F)C2)NC1CC1 [Example 154, 2-((5aS,6aR)-5a-(5-bromo-2-fluorophenyl)-3-thioxo-2,3,5,5a,6,6a-hexahydrocyclopropa[3,4]pyrrolo[1,2-c]imidazol-1-yl)-N-cyclopropylacetamide]
19.7 % of control | – | 91.5 % of control | CN(C(=O)Cc1[nH]c(=S)n2c1[C@@H]1C[C@]1(c1cc(Br)ccc1F)C2)C1CCCC1 [Example 155, 2-((5aS,6aR)-5a-(5-bromo-2-fluorophenyl)-3-thioxo-2,3,5,5a,6,6a-hexahydrocyclopropa[3,4]pyrrolo[1,2-c]imidazol-1-yl)-N-cyclopentyl-N-methylacetamide]

From patent US11434242B2, “Dopamine-b-hydroxylase inhibitors” (BIAL-PORTELA & Cª, S.A., priority 2017, dated 2022)
